Test results as given in patent US20240189258A1, “CANCER CELL GROWTH INHIBITING COMPOSITION AND PROCESSED FOOD” (HAGIHARA FARM PRODUCTION INSTITUTE CO., LTD., priority 2021, published 2024).

How the values were obtained:
Jurkat cells = experiment: Growth inhibiting activity for human leukemia T cell line Jurkat cells (Cell Count Reagent SF, cell viability); type: cell-based; settings: 72 hours culture, cell viability by absorbance A450-A630
Protocol: <2. Evaluation of growth inhibiting activity of compounds for human leukemia T cell line Jurkat cells>
The cancer cell growth-inhibiting activity of each sample described above was examined using Jurkat cells, which are from a human leukemia T cell line.
In each well of a 96-well plate, 50 μL of a Jurkat cell suspension prepared at 1×10^5 cells/mL was seeded. A DMSO solution of the evaluation sample was diluted 500 times with the culture medium. Immediately after that, 50 μL of the diluted sample solution was added to the cells to start a cell treatment. After the samples were stirred for 30 seconds using a microplate reader, the cells were cultured in an incubator. After 72 hours, 10 μL of Cell Count Reagent SF was added to each well. After a color reaction was performed in the incubator for 2 to 3 hours, the absorbance at 450 nm and 630 nm was measured using a microplate reader. Cell viability was determined using the following formula (F1).
Cell viability (%)=[(As−Ab)/(Ac−Ab)]×100 (F1)
Note that As, Ab, and Ac are as follows. • As: absorbance of evaluation well • Ab: absorbance of negative control well • Ac: absorbance of control well
All the “absorbance” values in the above-described formula were calculated by subtracting the absorbance at 630 nm (referred to as A630) from the absorbance at 450 nm (referred to as A450) , that is, “A450-A630”. Further, IC50 was calculated by linear approximation on a logarithmic graph using two concentrations that most tightly enclose the 50% cell viability point.

| SMILES | IC50 (Jurkat cells; Homo sapiens) [nM] | melting point [°C] | IC50 (Jurkat cells) [nM] |
| --- | --- | --- | --- |
| C/C(=C\CN(C)C)CCC[C@H](C)CCC[C@H](C)CCCC(C)C (racemic) [PT21, (7RS,11RS,E)-1-N,N-dimethylamino-3,7,11,15-tetramethyl-2-hexadecene] | 2800 |  |  |
| C/C(=C\CNC(C)C)CCC[C@H](C)CCC[C@H](C)CCCC(C)C (racemic) [PT22, (7RS,11RS,E)-1-isopropylamino-3,7,11,15-tetramethyl-2-hexadecene] | 2600 |  |  |
| C/C(=C\CNC(C)(C)C)CCC[C@H](C)CCC[C@H](C)CCCC(C)C (racemic) [PT23, (7RS,11RS,E)-1-t-butylamino-3,7,11,15-tetramethyl-2-hexadecene] | 3100 |  |  |
| C/C(=C\C[N+](C)(C)C)CCC[C@H](C)CCC[C@H](C)CCCC(C)C.[Br-] (racemic) [PT26, (7RS,11RS,E)-N,N,N-trimethyl-3,7,11,15-tetramethyl-2-hexadecenaminium bromide] | 1410 | 199 to 201 |  |
| CC[N+](CC)(CC)C/C=C(\C)CCC[C@H](C)CCC[C@H](C)CCCC(C)C.[Br-] (racemic) [PT27, (7RS,11RS,E)-N,N,N-triethyl-3,7,11,15-tetramethyl-2-hexadecenaminium bromide] | 480 | 132 to 135 |  |

Further lines, results first:

| IC50 (Jurkat cells; Homo sapiens) [nM] | melting point [°C] | IC50 (Jurkat cells) [nM] | SMILES |
| --- | --- | --- | --- |
| 3200 | 101 to 102 |  | C/C(=C\Cn1c(N)ccnc1=O)CCC[C@H](C)CCC[C@H](C)CCCC(C)C (racemic) [PT28, 6-amino-1-((7R,11R,E)-3,7,11,15-tetramethyl-2-hexadecenyl)pyrimidin-2(1H)-one] |
| 3800 |  |  | C/C(=C\CN)CCC[C@H](C)CCC[C@H](C)CCCC(C)C (racemic) [rac-PT10, (7R,11R,E)-1-amino-3,7,11,15-tetramethyl-2-hexadecene, reference compound] |
|  |  | 29800 | C/C(=C\CO)CCC[C@H](C)CCC[C@H](C)CCCC(C)C (racemic) [rac-PTO, phytol, reference compound] |
